Reference: patent US10174081B2, “Antimicrobial peptides and uses therefore” (priority 2011, dated 2019)
≈ marks a conversion by molar mass, not a printed value. Where “and” joins values, the source holds several entries; their conditions need not be identical. Equal entries are not always repeated. Square brackets hold non-standard residues; d marks the D form. Ends that are not written are not given here. Peptide text beside a SMILES is read from it.

Experiments:
P. aeruginosa = assay: Galleria mellonella infection by P. aeruginosa with AMP and antibiotic treatments; assay type: in vivo; details: single dose: 5 μg ciprofloxacin or 10 μg peptide
Protocol: Galleria mellonella (wax moth caterpillars) were obtained from Vanderhorst Wholesale (Saint Marys, Ohio). Eight to twelve caterpillars of equal size/weight were randomly assigned to each group. A 1 mL tuberculin syringe was used to inject 10 μl of 1×10^3 CFU/ml of P. aeruginosa into each caterpillar via the last left proleg. […] Caterpillar control groups included: injected with only PBS, ciprofloxacin, or AMPs. The insects were then observed daily for their survival status.

[1] = test system: P. aeruginosa (ATCC 19429); assay: Anti-microbial assay (CFU survival, EC50) against P. aeruginosa; assay type: cell-based, Pseudomonas aeruginosa; details: Example 6, FIG. 16; unit not given
Protocol: P. aeruginosa (ATCC 19429, American Type Culture Collection, Manassas, Va.) was grown in Nutrient Broth (Difco Laboratories, Detroit, Mich.) at 37° C. for 24 hours with shaking at 200 rpm. The CFU/ml was determined by growth on Nutrient Agar plates. For anti-microbial assays, frozen enumerated aliquots were thawed immediately before use.
Each experiment was repeated at least twice, and a representative experiment is shown, for clarity.

P. aeruginosa biofilm [2] = assay: Biofilm production (crystal violet) and growth (OD600) of P. aeruginosa in TSB; assay type: cell-based, Pseudomonas aeruginosa
Protocol: Biofilm production was measured as previously described (Durham-Colleran et al. (2010) Microb. Ecol., 59(3):457-465) with the following modifications. P. aeruginosa (1×10^5 CFU) in 200 μl of TSB media (Trypticase Soy Broth) was incubated with peptide at concentrations of 1.0, 0.1, and 0.01 μg/ml for 24 hours at 37° C. (Table 2). Optical density of the cultures (OD600 nm) at 24 hours was determined prior to staining as a measure of bacterial growth. Six wells were used for each peptide concentration (n=6). Biofilm production was measured using the crystal violet stain technique (Durham-Colleran et al., supra).

S. aureus (ATCC 25923) = assay: Anti-microbial assay (CFU survival, EC50) against S. aureus; assay type: cell-based, Staphylococcus aureus; details: for EC50 against S. aureus, preliminary studies: Example 4, FIG. 10
Protocol: S. aureus (ATCC 25923, American Type Culture Collection, Manassas, Va.) was grown in Nutrient Broth (Difco Laboratories, Detroit, Mich.) at pH 7, 37° C., for 24 hours with shaking at 200 rpm. The overnight culture was frozen with 20% glycerol and stored at −80° C. The frozen stock was enumerated (CFU/ml) by dilution plating and growth on Nutrient Agar plates.
For anti-microbial assays, frozen enumerated aliquots were thawed and gently mixed immediately before use. […] Negative control wells contained bacteria with no peptide. […] The EC50 was calculated as previously described (de Latour et al., supra).
Errors were reported based on the standard deviation from the mean of the log10 EC50 values (Gordon et al., supra). 95% confidence intervals were used to determine whether points were statistically different at p=0.05.

S. aureus biofilm = assay: Biofilm production (crystal violet) and growth (OD600) of S. aureus in TSB; assay type: cell-based, Staphylococcus aureus
Protocol: Biofilm production was measured as previously described (Durham-Colleran et al., supra) with the following modifications. […] The positive control was S. aureus in TSB with no peptide. Six wells were used for each peptide concentration (n=6). After 24 hours, the optical densities (OD) of the wells were taken at 600 nm to quantify […]. The biofilm production was measured using the crystal violet stain technique (Durham-Colleran et al., supra). All experiments were repeated at least twice.

C. albicans (ATCC 14053) = assay: Anti-microbial assay (CFU survival, EC50) against C. albicans; assay type: cell-based, Candida albicans; details: for EC50 against C. albicans: 3 hours, 37° C., 10 mM sodium phosphate pH 7.4, inconsistent colony growth; for Inhibition of C. albicans: at 500 and 100 μg; for EC50: converted with molecular weight
Protocol: C. albicans (ATCC 14053) was grown up in 25 mL of Sabouraud Dextrose (SO) broth for 48 hours at 25° C., after which samples were aliquoted into 2 mL microcentrifuge tubes at 0.5 mL.
On a 96-well plate, 1×10^4 CFU per well of C. albicans were incubated with different peptide concentrations (in serial dilutions of 1:10 and 1:5) starting with […] in a solution of buffer containing 10 mM sodium phosphate at pH 7.4 (3 hours, 37° C.). Serial dilutions were then carried out in 1× Dulbecco's PBS, and samples were plated in triplicate on Sabouraud Dextrose Agar plates, incubated (25° C., 48 hours) and CFUs were counted. C. albicans survival at each peptide concentration was calculated as previously described (Amer et al., supra; de Latour et al., supra), based on the percentage of the number of colonies in each experimental plate relative to the average number of colonies observed for assay cultures lacking peptide. […] In the equation, “Top” and “Bottom” refer to the upper and lower boundaries, and were constrained to values <100% and >0%, respectively. For graphing purposes, samples that had no peptide were plotted at 10^−9 μg/ml peptide. EC50 values were determined by fitting the data from the anti-microbial assays to a standard sigmoidal dose-response curve. Errors were reported based on the standard deviation from the mean of the log EC50 values. 2. Results

E. coli (ATCC 25922) = assay: Anti-microbial performance against E. coli, with and without FICOLL 70; assay type: cell-based, Escherichia coli; details: for Average EC50, E. coli: unit inferred; for fold increase in potency against E. coli: 20% FICOLL 70 versus none; for Anti-microbial performance of ATRA-1A isomers (EC50) E coli (ATCC 25922): Example 5, Table 9
Protocol: In these assays, bacteria (1×10^5 CFU/ml) were incubated for 3 hours at 37° C. with varied concentrations of peptide in 10 mM phosphate buffer (pH 7.4) containing 0 to 30% FICOLL™ 70. The potencies of the peptide isomers were determined by plotting bacterial survival (%) as a function of log peptide concentration and fitting the data to a standard dose response equation. Each experiment was conducted at least three times, with the exception of experiments with 15% and 30% FICOLL™, which were only performed once.

B. cereus (ATCC 11778) = assay: Anti-microbial performance against B. cereus, with and without FICOLL 70; assay type: cell-based; details: for fold increase in potency against B. cereus: 20% FICOLL 70 versus none
A. baumannii = details: Example 5, Table 9
Protocol: Anti-microbial activity was determined for each peptide isomer by enumerating the number of viable colony forming units after incubating bacteria in media containing varied concentrations of peptide.

S. aureus = assay: Biofilm attachment assay; assay type: cell-based, Staphylococcus aureus; details: 1 μg/ml peptide, 1 hour, 37° C.
Protocol: Biofilm attachment assays were performed in 96-well microtiter plates (BD Falcon 353072) as previously described (Overhage et al., supra). Overnight cultures of S. aureus were grown in TSB to an OD600 of about 1.0. […] The plates were incubated (1 hour, 37° C.) to allow the S. aureus to adhere to the wells. The wells were washed and OD600 measurements were taken, as in the biofilm production experiments, and the average absorbance for each treatment was determined (n=16).

P. aeruginosa biofilm [3] = details: Overhage et al.; cited from earlier work

Compound | average EC50 against P. aeruginosa [1] | EC50 against S. aureus, preliminary studies (S. aureus (ATCC 25923)) [µg/mL] | EC50 against C. albicans (C. albicans (ATCC 14053)) [µg/mL] | Inhibition of C. albicans (C. albicans (ATCC 14053)) | EC50 (C. albicans (ATCC 14053)) [µM] | Average EC50, E. coli (E. coli (ATCC 25922); 0% FICOLL 70) [µg/mL] | Average EC50, E. coli (E. coli (ATCC 25922); 5% FICOLL 70) [µg/mL] | Average EC50, E. coli (E. coli (ATCC 25922); 10% FICOLL 70) [µg/mL] | Average EC50, E. coli (E. coli (ATCC 25922); 15% FICOLL 70, performed once) [µg/mL] | Average EC50, E. coli (E. coli (ATCC 25922); 20% FICOLL 70) [µg/mL] | fold increase in potency against E. coli (E. coli (ATCC 25922)) [fold] | Average EC50, E. coli (E. coli (ATCC 25922); 30% FICOLL 70, performed once) [µg/mL] | Anti-microbial performance of ATRA-1A isomers (EC50) E coli (ATCC 25922) (E. coli (ATCC 25922)) [µg/mL] | EC50 with 20% FICOLL 70, E. coli (E. coli (ATCC 25922)) [µg/mL] | EC50 without FICOLL 70, E. coli (E. coli (ATCC 25922)) [µg/mL] | fold increase in potency against B. cereus (B. cereus (ATCC 11778)) [fold] | EC50 with 20% FICOLL 70, B. cereus (B. cereus (ATCC 11778)) [µg/mL] | EC50 without FICOLL 70, B. cereus (B. cereus (ATCC 11778)) [µg/mL] | Anti-microbial performance of ATRA-1A isomers (EC50) A. baumannii (A. baumannii) [µg/mL] | also measured
O=C(O)c1cn(C2CC2)c2cc(N3CCNCC3)c(F)cc2c1=O [ciprofloxacin] | – | – | – | – | – | – | – | – | – | – | – | – | – | – | – | – | – | – | – | effect on survival of infected G. mellonella (P. aeruginosa): effective; survival of P. aeruginosa-infected G. mellonella (P. aeruginosa; 1×10^3 CFU): 55%
CC(C)C[C@@H](NC(=O)[C@@H](CCCCN)NC(=O)[C@@H](CCCCN)NC(=O)[C@@H](Cc1ccccc1)NC(=O)[C@@H](Cc1ccccc1)NC(=O)[C@@H](CCCCN)NC(=O)[C@@H](CCCCN)NC(=O)[C@@H](C)NC(=O)[C@@H](CCCNC(=N)N)NC(=O)[C@H](N)CCCCN)C(=O)N[C@H](CCCCN)C(N)=O [D-ATRA-1A] (H-[dK][dR][dA][dK][dK][dF][dF][dK][dK][dL][dK]-NH2; N-terminus assumed) | 9.643 (CI 6.5 to 14.2) | 6.97 (≈ 4.91 µM) | 22.10 (≈ 15.6 µM) | consistently seen | 15.6 | 1.3 | 0.71 | 0.24 | 0.1 | 0.085 | 13.66 | 0.01 | 1.302 | 0.0850 | 1.302 | 54.34 | 0.0406 | 2.330 | 9.73 | inhibiting biofilm growth, D- versus L-ATRA-1A (P. aeruginosa biofilm [2]; 1 μg/ml, FIG. 20): more effective at inhibiting biofilm growth; fold difference in activities of L- and D-ATRA-1A against S. aureus (S. aureus (ATCC 25923); D less effective than L): 30 fold; EC50 against S. aureus, two best data sets (S. aureus (ATCC 25923); Example 6, FIGS. 14 and 15, left and right panels): 26.53 µg/mL and 25.02 µg/mL; inhibiting biofilm growth, D- versus L-ATRA-1A (S. aureus biofilm; 1 μg/ml, FIG. 20): more effective at inhibiting biofilm growth
GLKLRFEFSKIKGEFLKTPEVRFRDIKLKDNRISVQR [Scrambled LL-37, reference compound] | – | – | – | – | – | – | – | – | – | – | – | – | – | – | – | – | – | – | – | inhibition of biofilm formation (P. aeruginosa biofilm [2]; TSB, any concentration tested (up to 1 μg/ml)): no inhibition of biofilm formation; inhibition of biofilm formation (S. aureus biofilm; TSB, concentrations without anti-microbial activity): no inhibition of biofilm formation; attachment of S. aureus to polystyrene wells (S. aureus): did not decrease
GLLRKGGEKIGEKLKKIGQKIKNFFQKLVPQPEQ [mCRAMP] | – | – | – | – | – | – | – | – | – | – | – | – | – | – | – | – | – | – | – | inhibitory effect on biofilm formation, previously known (P. aeruginosa biofilm [3]): no inhibitory effect
KRAKKFFKKLK-NH2 [ATRA-1A] | 14.22 (CI 10.4 to 19.4) | 0.27 | 33.38 | consistently seen | 23.5 | 2.9 | 1.6 | 0.86 | 0.64 | 0.42 | 10.66 | 0.29 | 4.323 | 0.420 | 4.232 | 14 | 5.207 | 72.41 | 53.25 | EC50 of AMPs against S. aureus (S. aureus (ATCC 25923); 3 hours, 37° C., 10 mM sodium phosphate pH 7.4, ± standard deviation): 1.45 ± 1.5 µg/mL; Anti-microbial performance of ATRA-1A isomers (EC50) S. aureus (S. aureus (ATCC 25923); Example 5, Table 9): 1.45 µg/mL; EC50 (S. aureus (ATCC 25923); converted from μg/ml with molecular weight of TFA salt): 0.62 µM
